# Results taken from ChEMBL document CHEMBL3046904, “Synthesis, characterization, bioactivity, and POM analyses of isothiochromeno[3,4-e][1,2]oxazines” (2013).
# Assays:
# Assay type in all cases: functional
# [1] = test system: MCF7; assay: Cytotoxicity against Homo sapiens (human) MCF7 assessed as cell growth at 10^-4 M after 48 hr by Alamar Blue assay; conditions: MCF7, 48 h, read-out: Activity
# [2] = test system: NCI-H460; assay: Cytotoxicity against Homo sapiens (human) NCI-H460 assessed as cell growth at 10^-4 M after 48 hr by Alamar Blue assay; conditions: NCI-H460, 48 h, read-out: Activity
# [3] = test system: SF-268; assay: Cytotoxicity against Homo sapiens (human) SF268 assessed as cell growth at 10^-4 M after 48 hr by Alamar Blue assay; conditions: SF-268, 48 h, read-out: Activity
# [4] = test system: KM12; assay: Cytotoxicity against Homo sapiens (human) KM12 after 48 hr by Alamar Blue assay; conditions: KM12, 48 h
# [5] = test system: SK-MEL-2; assay: Cytotoxicity against Homo sapiens (human) SK-MEL-2 after 48 hr by Alamar Blue assay; conditions: SK-MEL-2, 48 h
# [6] = test system: CAKI-1; assay: Cytotoxicity against Homo sapiens (human) Caki1 after 48 hr by Alamar Blue assay; conditions: CAKI-1, 48 h
# [7] = test system: U-251; assay: Cytotoxicity against Homo sapiens (human) U251 after 48 hr by Alamar Blue assay; conditions: U-251, 48 h
# [8] = test system: HT-29; assay: Cytotoxicity against Homo sapiens (human) HT-29 after 48 hr by Alamar Blue assay; conditions: HT-29, 48 h
# [9] = test system: MDA-MB-231; assay: Cytotoxicity against Homo sapiens (human) MDA-MB-231 after 48 hr by Alamar Blue assay; conditions: MDA-MB-231, 48 h
# [10] = test system: NCI-H522; assay: Cytotoxicity against Homo sapiens (human) NCI-H522 after 48 hr by Alamar Blue assay; conditions: NCI-H522, 48 h
# [11] = test system: DU-145; assay: Cytotoxicity against Homo sapiens (human) DU145 after 48 hr by Alamar Blue assay; conditions: DU-145, 48 h
# [12] = test system: HCT-116; assay: Cytotoxicity against Homo sapiens (human) HCT116 after 48 hr by Alamar Blue assay; conditions: HCT-116, 48 h
# [13] = test system: OVCAR-8; assay: Cytotoxicity against Homo sapiens (human) OVCAR8 after 48 hr by Alamar Blue assay; conditions: OVCAR-8, 48 h
# [14] = test system: Malme-3M; assay: Cytotoxicity against Homo sapiens (human) MALME-3M after 48 hr by Alamar Blue assay
# [15] = test system: SNB-19; assay: Cytotoxicity against Homo sapiens (human) SNB19 after 48 hr by Alamar Blue assay; conditions: SNB-19, 48 h
# [16] = test system: NCI/ADR-RES; assay: Cytotoxicity against Homo sapiens (human) NCI/ADR-RES after 48 hr by Alamar Blue assay
# [17] = test system: HCC 2998; assay: Cytotoxicity against Homo sapiens (human) HCC2998 after 48 hr by Alamar Blue assay; conditions: HCC 2998, 48 h
# [18] = test system: HOP-92; assay: Cytotoxicity against Homo sapiens (human) HOP92 after 48 hr by Alamar Blue assay; conditions: HOP-92, 48 h
# [19] = test system: HCT-15; assay: Cytotoxicity against Homo sapiens (human) HCT15 after 48 hr by Alamar Blue assay; conditions: HCT-15, 48 h
# [20] = test system: SW-620; assay: Cytotoxicity against Homo sapiens (human) SW620 after 48 hr by Alamar Blue assay; conditions: SW-620, 48 h
# [21] = test system: PC-3; assay: Cytotoxicity against Homo sapiens (human) PC3 after 48 hr by Alamar Blue assay; conditions: PC-3, 48 h
# [22] = test system: NCI-H322M; assay: Cytotoxicity against Homo sapiens (human) NCI-H322M after 48 hr by Alamar Blue assay
# [23] = test system: OVCAR-4; assay: Cytotoxicity against Homo sapiens (human) OVCAR4 after 48 hr by Alamar Blue assay; conditions: OVCAR-4, 48 h
# [24] = test system: K562; assay: Cytotoxicity against Homo sapiens (human) K562 after 48 hr by Alamar Blue assay; conditions: K562, 48 h
# [25] = test system: T47D; assay: Cytotoxicity against Homo sapiens (human) T47D after 48 hr by Alamar Blue assay
# [26] = test system: RXF 393; assay: Cytotoxicity against Homo sapiens (human) RXF393 after 48 hr by Alamar Blue assay; conditions: RXF 393, 48 h
# [27] = test system: OVCAR-5; assay: Cytotoxicity against Homo sapiens (human) OVCAR5 after 48 hr by Alamar Blue assay; conditions: OVCAR-5, 48 h
# [28] = test system: Hs-578T; assay: Cytotoxicity against Homo sapiens (human) Hs 578T after 48 hr by Alamar Blue assay
# [29] = test system: NCI-H226; assay: Cytotoxicity against Homo sapiens (human) NCI-H226 after 48 hr by Alamar Blue assay; conditions: NCI-H226, 48 h
# [30] = test system: M14; assay: Cytotoxicity against Homo sapiens (human) M14 after 48 hr by Alamar Blue assay; conditions: M14, 48 h
# [31] = test system: SF-295; assay: Cytotoxicity against Homo sapiens (human) SF295 after 48 hr by Alamar Blue assay; conditions: SF-295, 48 h
# [32] = test system: NCI-H460; assay: Cytotoxicity against Homo sapiens (human) NCI-H460 after 48 hr by Alamar Blue assay; conditions: NCI-H460, 48 h
# [33] = test system: ACHN; assay: Cytotoxicity against Homo sapiens (human) ACHN after 48 hr by Alamar Blue assay
# [34] = test system: RPMI-8226; assay: Cytotoxicity against Homo sapiens (human) RPMI8226 after 48 hr by Alamar Blue assay; conditions: RPMI-8226, 48 h
# [35] = test system: SK-MEL-5; assay: Cytotoxicity against Homo sapiens (human) SK-MEL-5 after 48 hr by Alamar Blue assay; conditions: SK-MEL-5, 48 h
# [36] = test system: NCI-H23; assay: Cytotoxicity against Homo sapiens (human) NCI-H23 after 48 hr by Alamar Blue assay; conditions: NCI-H23, 48 h
# [37] = test system: TK-10; assay: Cytotoxicity against Homo sapiens (human) TK10 after 48 hr by Alamar Blue assay; conditions: TK-10, 48 h
# [38] = test system: MCF7; assay: Cytotoxicity against Homo sapiens (human) MCF7 after 48 hr by Alamar Blue assay; conditions: MCF7, 48 h
# [39] = test system: HOP-62; assay: Cytotoxicity against Homo sapiens (human) HOP62 after 48 hr by Alamar Blue assay; conditions: HOP-62, 48 h
# [40] = test system: SK-MEL-28; assay: Cytotoxicity against Homo sapiens (human) SK-MEL-28 after 48 hr by Alamar Blue assay; conditions: SK-MEL-28, 48 h
# [41] = test system: SF-268; assay: Cytotoxicity against Homo sapiens (human) SF268 after 48 hr by Alamar Blue assay; conditions: SF-268, 48 h
# [42] = test system: MOLT-4; assay: Cytotoxicity against Homo sapiens (human) MOLT4 after 48 hr by Alamar Blue assay; conditions: MOLT-4, 48 h
# [43] = test system: A549; assay: Cytotoxicity against Homo sapiens (human) A549 after 48 hr by Alamar Blue assay; conditions: A549, 48 h
# [44] = test system: LOX IMVI; assay: Cytotoxicity against Homo sapiens (human) LOXIMVI after 48 hr by Alamar Blue assay
# [45] = test system: UACC-257; assay: Cytotoxicity against Homo sapiens (human) UACC257 after 48 hr by Alamar Blue assay; conditions: UACC-257, 48 h
# [46] = test system: EKVX; assay: Cytotoxicity against Homo sapiens (human) EKVX after 48 hr by Alamar Blue assay
# [47] = test system: A498; assay: Cytotoxicity against Homo sapiens (human) A498 after 48 hr by Alamar Blue assay; conditions: A498, 48 h
# [48] = test system: BT-549; assay: Cytotoxicity against Homo sapiens (human) BT549 after 48 hr by Alamar Blue assay; conditions: BT-549, 48 h
# [49] = Cytotoxicity against Homo sapiens (human) HL-60(TB) after 48 hr by Alamar Blue assay; conditions: HL-60, 48 h
# [50] = test system: UO-31; assay: Cytotoxicity against Homo sapiens (human) UO31 after 48 hr by Alamar Blue assay; conditions: UO-31, 48 h
# [51] = test system: 786-0; assay: Cytotoxicity against Homo sapiens (human) 786-0 after 48 hr by Alamar Blue assay; conditions: 786-0, 48 h
# [52] = test system: SR; assay: Cytotoxicity against Homo sapiens (human) SR after 48 hr by Alamar Blue assay
# [53] = test system: COLO 205; assay: Cytotoxicity against Homo sapiens (human) COLO205 after 48 hr by Alamar Blue assay; conditions: COLO 205, 48 h
# [54] = test system: IGROV-1; assay: Cytotoxicity against Homo sapiens (human) IGROV1 after 48 hr by Alamar Blue assay; conditions: IGROV-1, 48 h
# [55] = test system: OVCAR-3; assay: Cytotoxicity against Homo sapiens (human) OVCAR3 after 48 hr by Alamar Blue assay; conditions: OVCAR-3, 48 h
# [56] = test system: SF-539; assay: Cytotoxicity against Homo sapiens (human) SF539 after 48 hr by Alamar Blue assay; conditions: SF-539, 48 h
# [57] = test system: UACC-62; assay: Cytotoxicity against Homo sapiens (human) UACC62 after 48 hr by Alamar Blue assay; conditions: UACC-62, 48 h
# [58] = test system: SN12C; assay: Cytotoxicity against Homo sapiens (human) SN12C after 48 hr by Alamar Blue assay
# [59] = test system: MDA-MB-435; assay: Cytotoxicity against Homo sapiens (human) MDA-MB-435 after 48 hr by Alamar Blue assay; conditions: MDA-MB-435, 48 h
smiles,measurement,setting,value
Cc1ccc(C2=C3SC=c4ccccc4=C3ON=C2c2ccc([N+](=O)[O-])cc2)cc1,growth at 100 µM,[1],97%
same,growth at 100 µM,[2],99%
same,growth at 100 µM,[3],83%
Cc1ccc(C2=C3SC=c4ccccc4=C3ON=C2c2ccc(Cl)cc2)cc1,GI50,[4],> 100 µM
same,GI50,[5],> 100 µM
same,GI50,[6],> 100 µM
same,GI50,[7],20 µM
same,GI50,[8],> 100 µM
same,GI50,[9],> 100 µM
same,GI50,[10],15.1 µM
same,GI50,[11],> 100 µM
same,GI50,[12],62.7 µM
same,GI50,[13],11.6 µM
same,GI50,[14],22.1 µM
same,GI50,[15],> 100 µM
same,GI50,[16],> 100 µM
same,GI50,[17],> 100 µM
same,GI50,[18],26.5 µM
same,GI50,[19],81.2 µM
same,GI50,[20],55.6 µM
same,growth at 100 µM,[1],2%
same,GI50,[21],21.6 µM
same,growth at 100 µM,[2],91%
same,GI50,[22],> 100 µM
same,GI50,[23],> 100 µM
same,GI50,[24],20.6 µM
same,GI50,[25],31.4 µM
same,GI50,[26],> 100 µM
same,GI50,[27],> 100 µM
same,GI50,[28],> 100 µM
same,GI50,[29],> 100 µM
same,GI50,[30],> 100 µM
same,GI50,[31],> 100 µM
same,GI50,[32],> 100 µM
same,GI50,[33],> 100 µM
same,GI50,[34],11.8 µM
same,GI50,[35],53.1 µM
same,GI50,[36],16.6 µM
same,GI50,[37],> 100 µM
same,GI50,[38],31.2 µM
same,GI50,[39],> 100 µM
same,GI50,[40],> 100 µM
same,GI50,[41],12.1 µM
same,GI50,[42],12.5 µM
same,GI50,[43],> 100 µM
same,GI50,[44],50 µM
same,growth at 100 µM,[3],37%
same,GI50,[45],25.6 µM
same,GI50,[46],> 100 µM
same,GI50,[47],> 100 µM
same,GI50,[48],41.2 µM
same,GI50,[49],0.0182 nM
same,GI50,[50],> 100 µM
same,GI50,[51],21.2 µM
same,GI50,[52],36.5 µM
same,GI50,[53],46.2 µM
same,GI50,[54],> 10 µM
same,GI50,[55],> 100 µM
same,GI50,[56],> 100 µM
same,GI50,[57],> 100 µM
same,GI50,[58],11.3 µM
same,GI50,[59],44.2 µM
COc1ccc(C2=C3SC=c4ccccc4=C3ON=C2c2ccc(C)cc2)cc1,growth at 100 µM,[1],98%
same,growth at 100 µM,[2],84%
same,growth at 100 µM,[3],103%
COc1ccc(C2=NOC3=c4ccccc4=CSC3=C2c2ccc(OC)cc2)cc1,growth at 100 µM,[1],116%
same,growth at 100 µM,[2],102%
same,growth at 100 µM,[3],105%
